Reference: patent US7268125B2 (Azevan Pharmaceuticals, Inc., priority 2001, dated 2007)

Target: T1, human V1a receptor (Homo sapiens, UniProt P37288)
T1 construct: host or cells: CHO cells
Test: Human vasopressin V1a receptor binding assay
Conditions: hV1a cell line (CHO), competition with 1 nM 3H-AVP, 45 minutes at 37° C.; read-out: V1a BINDING AFFINITY (IC50 (nM))
Method: Human Vasopression V1a Receptor Binding Assay.
A cell line expressing the human V1a receptor in CHO cells (henceforth referred to as the hV1a cell line) was obtained from Dr. Michael Brownstein, NIMH, Bethesda, Md., USA. The hV1a cDNA sequence is described by Thibonnier et al., Journal of Biological Chemistry, 269, 3304-3310 (1994), and the expression method was the same as described by Morel et al. (1992). The hV1a cell line was grown in alpha-MEM with 10% fetal bovine serum and 250 ug/ml G418 (Gibco, Grand Island, N.Y., USA). For competitive binding assay, hV1a cells were plated into 6-well culture plate at 1:10 dilution from a confluency flask, and maintained in culture for at least two days. Culture medium was then removed, cells were washed with 2 ml binding buffer (25 mM Hepes, 0.25% BSA, 1×DMEM, PH=7.0). To each well, 990 μl binding buffer containing 1 nM 3H-AVP was added, and followed by 10 μl series diluted Example compounds dissolved in DMSO. […] 100 nM cold AVP (Sigma) was used to assess non-specific binding. Cells were incubated for 45 minutes at 37° C., assay mixture was removed and each well was washed three times with PBS (pH=7.4). 1 ml 2% SDS was added per well and plates were let sit for 30 minutes. The whole content in a well was transferred to a scintillation vial. Each well was rinsed with 0.5 ml PBS which was then added to the corresponding vial. Scintillation fluid (Ecoscint, National Diagnostics, Atlanta, Ga.) was then added at 3 ml per vial. Samples were counted in a liquid scintillation counter (Beckman LS3801). IC50 values were calculated by Prism Curve fitting software.
All of the alkanedioic esters and amides exemplified in the foregoing examples were tested in this assay described of Example 201.

T1 sequence (P37288 whole entry): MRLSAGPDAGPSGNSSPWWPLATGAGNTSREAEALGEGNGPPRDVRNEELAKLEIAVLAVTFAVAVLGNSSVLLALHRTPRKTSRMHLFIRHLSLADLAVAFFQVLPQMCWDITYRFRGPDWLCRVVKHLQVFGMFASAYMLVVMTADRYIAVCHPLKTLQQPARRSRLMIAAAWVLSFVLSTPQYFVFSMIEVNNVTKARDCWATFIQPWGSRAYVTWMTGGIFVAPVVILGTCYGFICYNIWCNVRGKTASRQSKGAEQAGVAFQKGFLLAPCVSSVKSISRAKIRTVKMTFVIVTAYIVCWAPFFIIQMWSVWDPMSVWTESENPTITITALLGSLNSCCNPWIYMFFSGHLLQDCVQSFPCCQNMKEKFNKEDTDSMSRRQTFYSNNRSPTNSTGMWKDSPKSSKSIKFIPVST

SMILES | IC50 [nM]
CC(C)(C)OC(=O)C(C(=O)NCc1cccc(C(F)(F)F)c1)N1C(=O)[C@@H](N2C(=O)OC[C@@H]2c2ccccc2)[C@H]1/C=C/c1ccccc1 (mixture of isomers) [Example 18, 2(RS)-(tert-Butoxycarbonyl)-2-[3(S)-(4(S)-phenyloxazolidin-2-on-3-yl)-4(R)-(2-styryl)azetidin-2-on-1-yl]acetic acid N-(3-trifluoromethylbenzyl)amide] | 35
O=C(NCc1cccc(C(F)(F)F)c1)C(C(=O)N1CCC(N2CCCCC2)CC1)N1C(=O)[C@@H](N2C(=O)OC[C@@H]2c2ccccc2)[C@H]1/C=C/c1ccccc1 (mixture of isomers) [Example 37] | 5.5
O=C(NCc1cccc(C(F)(F)F)c1)C(C(=O)N1CCN(CCc2ccccc2)CC1)N1C(=O)[C@@H](N2C(=O)OC[C@@H]2c2ccccc2)[C@H]1/C=C/c1ccccc1 (mixture of isomers) [Example 38] | < 25
O=C(NCc1cccc(C(F)(F)F)c1)C(C(=O)NC1CCN(Cc2ccccc2)CC1)N1C(=O)[C@@H](N2C(=O)OC[C@@H]2c2ccccc2)[C@H]1/C=C/c1ccccc1 (mixture of isomers) [Example 39] | 23
CCCCN1CCN(C(=O)C(C(=O)NCc2cccc(C(F)(F)F)c2)N2C(=O)[C@@H](N3C(=O)OC[C@@H]3c3ccccc3)[C@H]2/C=C/c2ccccc2)CC1 (mixture of isomers) [Example 40] | 11
CC(C)N1CCN(C(=O)C(C(=O)NCc2cccc(C(F)(F)F)c2)N2C(=O)[C@@H](N3C(=O)OC[C@@H]3c3ccccc3)[C@H]2/C=C/c2ccccc2)CC1 (mixture of isomers) [Example 41] | < 20
O=C(NCc1cccc(C(F)(F)F)c1)C(C(=O)N1CCN(C2CCCCC2)CC1)N1C(=O)[C@@H](N2C(=O)OC[C@@H]2c2ccccc2)[C@H]1/C=C/c1ccccc1 (mixture of isomers) [Example 42] | < 20
CCCCN1CCN(C(=O)CCC(C(=O)NCc2cccc(C(F)(F)F)c2)N2C(=O)C(N3C(=O)OCC3c3ccccc3)C2C=Cc2ccccc2)CC1 (single isomer, unassigned) [Example 103] | 0.81
CC(C)N1CCN(C(=O)CCC(C(=O)NCc2cccc(C(F)(F)F)c2)N2C(=O)C(N3C(=O)OCC3c3ccccc3)C2C=Cc2ccccc2)CC1 (single isomer, unassigned) [Example 104] | 1.85
CC(C)(C)OC(=O)C[C@@H](C(=O)NCc1cccc(C(F)(F)F)c1)N1C(=O)[C@@H](N2C(=O)OC[C@@H]2c2ccccc2)[C@H]1/C=C/c1ccccc1 [Example 19, 2(S)-(tert-Butoxycarbonylmethyl)-2-[3(S)-(4(S)-phenyloxazolidin-2-on-3-yl)-4(R)-(2-styryl)azetidin-2-on-1-yl]acetic acid N-(3-trifluoromethylbenzyl)amide] | 35
CC(C)(C)OC(=O)CC[C@@H](C(=O)NCc1cccc(C(F)(F)F)c1)N1C(=O)[C@@H](N2C(=O)OC[C@@H]2c2ccccc2)[C@H]1/C=C/c1ccccc1 [Example 20, 2(S)-(tert-Butoxycarbonylethyl)-2-[3(S)-(4(S)-phenyloxazolidin-2-on-3-yl)-4(R)-(2-styryl)azetidin-2-on-1-yl]acetic acid N-(3-trifluoromethylbenzyl)amide] | 35
CCCCN1CCN(C(=O)C[C@@H](C(=O)NCc2cccc(C(F)(F)F)c2)N2C(=O)[C@@H](N3C(=O)OC[C@@H]3c3ccccc3)[C@H]2/C=C/c2ccccc2)CC1 [Example 59] | < 100
O=C(C[C@@H](C(=O)NCc1cccc(C(F)(F)F)c1)N1C(=O)[C@@H](N2C(=O)OC[C@@H]2c2ccccc2)[C@H]1/C=C/c1ccccc1)NC1CCN(Cc2ccccc2)CC1 [Example 63] | 1.84
O=C(NCc1cccc(C(F)(F)F)c1)[C@H](CC(=O)N1CCN(C2CCCCC2)CC1)N1C(=O)[C@@H](N2C(=O)OC[C@@H]2c2ccccc2)[C@H]1/C=C/c1ccccc1 [Example 66] | ~50
O=C(NCc1cccc(C(F)(F)F)c1)[C@H](CC(=O)N1CCN(C2CCCC2)CC1)N1C(=O)[C@@H](N2C(=O)OC[C@@H]2c2ccccc2)[C@H]1/C=C/c1ccccc1 [Example 77] | < 100
O=C(NCc1cccc(C(F)(F)F)c1)[C@H](CC(=O)N1CCN(CCN2CCCC2)CC1)N1C(=O)[C@@H](N2C(=O)OC[C@@H]2c2ccccc2)[C@H]1/C=C/c1ccccc1 [Example 78] | < 100
CCN(CC)CCN1CCN(C(=O)C[C@@H](C(=O)NCc2cccc(C(F)(F)F)c2)N2C(=O)[C@@H](N3C(=O)OC[C@@H]3c3ccccc3)[C@H]2/C=C/c2ccccc2)CC1 [Example 81] | < 100
O=C(NCc1cccc(C(F)(F)F)c1)[C@H](CC(=O)N1CCCN(Cc2ccccc2)CC1)N1C(=O)[C@@H](N2C(=O)OC[C@@H]2c2ccccc2)[C@H]1/C=C/c1ccccc1 [Example 82] | < 50
O=C(C[C@@H](C(=O)NCc1cccc(C(F)(F)F)c1)N1C(=O)[C@@H](N2C(=O)OC[C@@H]2c2ccccc2)[C@H]1/C=C/c1ccccc1)N[C@H]1CCN(Cc2ccccc2)C1 [Example 85] | 5.87

SMILES | IC50 [nM]
O=C(CC[C@@H](C(=O)NCc1cccc(C(F)(F)F)c1)N1C(=O)[C@@H](N2C(=O)OC[C@@H]2c2ccccc2)[C@H]1/C=C/c1ccccc1)NCCN1CCCCC1 [Example 87] | 15
O=C(NCc1cccc(C(F)(F)F)c1)[C@H](CCC(=O)N1CCN(N2CCCC2)CC1)N1C(=O)[C@@H](N2C(=O)OC[C@@H]2c2ccccc2)[C@H]1/C=C/c1ccccc1 [Example 91] | 3.24
O=C(NCc1cccc(C(F)(F)F)c1)[C@H](CCC(=O)N1CCN(Cc2ccccc2)CC1)N1C(=O)[C@@H](N2C(=O)OC[C@@H]2c2ccccc2)[C@H]1/C=C/c1ccccc1 [Example 95] | 1.76
O=C(NCc1cccc(C(F)(F)F)c1)[C@H](CCC(=O)N1CCN(Cc2ccc3c(c2)OCO3)CC1)N1C(=O)[C@@H](N2C(=O)OC[C@@H]2c2ccccc2)[C@H]1/C=C/c1ccccc1 [Example 96] | 4.35
CN(C)CCNC(=O)CC[C@@H](C(=O)NCc1cccc(C(F)(F)F)c1)N1C(=O)[C@@H](N2C(=O)OC[C@@H]2c2ccccc2)[C@H]1/C=C/c1ccccc1 [Example 100] | < 100
O=C(NCc1cccc(C(F)(F)F)c1)[C@H](CCC(=O)N1CCN(CC(=O)N2CCCC2)CC1)N1C(=O)[C@@H](N2C(=O)OC[C@@H]2c2ccccc2)[C@H]1/C=C/c1ccccc1 [Example 101] | ~100
CN1CCC(N2CCN(C(=O)CC[C@@H](C(=O)NCc3cccc(C(F)(F)F)c3)N3C(=O)[C@@H](N4C(=O)OC[C@@H]4c4ccccc4)[C@H]3/C=C/c3ccccc3)CC2)CC1 [Example 102] | < 100
CN(C)CCCNC(=O)CC[C@@H](C(=O)NCc1cccc(C(F)(F)F)c1)N1C(=O)[C@@H](N2C(=O)OC[C@@H]2c2ccccc2)[C@H]1/C=C/c1ccccc1 [Example 106] | ~100
O=C(CC[C@@H](C(=O)NCc1cccc(C(F)(F)F)c1)N1C(=O)[C@@H](N2C(=O)OC[C@@H]2c2ccccc2)[C@H]1/C=C/c1ccccc1)NC1CCN(Cc2ccccc2)CC1 [Example 107] | < 50
CN(C)CCN(Cc1ccccc1)C(=O)CC[C@@H](C(=O)NCc1cccc(C(F)(F)F)c1)N1C(=O)[C@@H](N2C(=O)OC[C@@H]2c2ccccc2)[C@H]1/C=C/c1ccccc1 [Example 108] | ~100
O=C(CC[C@@H](C(=O)NCc1cccc(C(F)(F)F)c1)N1C(=O)[C@@H](N2C(=O)OC[C@@H]2c2ccccc2)[C@H]1/C=C/c1ccccc1)NCc1cccnc1 [Example 109] | ~100
O=C(NCc1cccc(C(F)(F)F)c1)[C@H](CCC(=O)N1CCN(CCC2CCCCC2)CC1)N1C(=O)[C@@H](N2C(=O)OC[C@@H]2c2ccccc2)[C@H]1/C=C/c1ccccc1 [Example 111] | 1.31
O=C(NCc1cccc(C(F)(F)F)c1)[C@H](CCC(=O)N1CCN(CCN2CCOCC2)CC1)N1C(=O)[C@@H](N2C(=O)OC[C@@H]2c2ccccc2)[C@H]1/C=C/c1ccccc1 [Example 112] | 1.34
O=C(NCc1cccc(C(F)(F)F)c1)[C@H](CCC(=O)N1CCN(CC2CCCCC2)CC1)N1C(=O)[C@@H](N2C(=O)OC[C@@H]2c2ccccc2)[C@H]1/C=C/c1ccccc1 [Example 120] | 0.75
O=C(NCc1cccc(C(F)(F)F)c1)[C@@H](CCC(=O)N1CCC(N2CCCCC2)CC1)N1C(=O)[C@@H](N2C(=O)OC[C@@H]2c2ccccc2)[C@H]1/C=C/c1ccccc1 [Example 135] | ~50
O=C(NCc1cccc(C(F)(F)F)c1)[C@@H](CCC(=O)N1CCN(CCc2ccccc2)CC1)N1C(=O)[C@@H](N2C(=O)OC[C@@H]2c2ccccc2)[C@H]1/C=C/c1ccccc1 [Example 136] | 11
CCCCN1CCN(C(=O)CC[C@H](C(=O)NCc2cccc(C(F)(F)F)c2)N2C(=O)[C@@H](N3C(=O)OC[C@@H]3c3ccccc3)[C@H]2/C=C/c2ccccc2)CC1 [Example 137] | 17
CC(C)N1CCN(C(=O)CC[C@H](C(=O)NCc2cccc(C(F)(F)F)c2)N2C(=O)[C@@H](N3C(=O)OC[C@@H]3c3ccccc3)[C@H]2/C=C/c2ccccc2)CC1 [Example 138] | 21
